Experimental data as given in US11186640B2, “Method for the identification of immunotherapy-drug combinations using a network approach” (THE UNIVERSITY OF WESTERN AUSTRALIA, priority 2014, dated 2021).
“Also recorded” adds a separate entry of the source. Where two headings read alike, the source gives them in different places.

Legend:
AB1-HA mesothelioma [1] = test: in vivo co-treatment with anti-CTLA-4 in AB1-HA tumour bearing mice; parameters: species or system BALB/c mice; settings: for anti-tumour response / response rate to anti-CTLA-4 on co-treatment: drug in combination with anti-CTLA-4
melanoma = melanoma patients after ipilimumab; cited from earlier work
[2] = mouse, in vivo, ip, 400 mg/kg
[3] = mice, i.p. administration; cited from earlier work
[4] = tested on: Renca kidney cancer cells; type: in vivo, BALB/c mice
Line-1 lung cancer cells = test: in vivo co-treatment with anti-CTLA4 in Line-1 lung cancer model; parameters: species or system BALB/c mice
AB1-HA mesothelioma [5] = test: in vivo co-treatment with anti-GITR in AB1-HA tumour bearing mice; parameters: species or system BALB/c mice; settings: drug in combination with anti-GITR

Compound	anti-tumour response / response rate to anti-CTLA-4 on co-treatment (AB1-HA mesothelioma [1])	other results
Cc1cc(Nc2cc(N3CCN(C)CC3)nc(Sc3ccc(NC(=O)C4CC4)cc3)n2)n[nH]1 [VX-680]	significantly increased	
COc1c2c(cc3c1OCO3)CCN(C)C2 [hydrocotarnine]	increased anti-tumour response	
ipilimumab		7-year survival (melanoma): 17%
NC(=NCCC[C@H](N)C(=O)O)N[N+](=O)[O-] [L-NNA]	diminished; also recorded: abrogated the anti-tumour effect	
Cc1ncc(CO)c(CO)c1O [pyridoxine]	clear effect; also recorded: increased anti-tumour response	
Cc1cc2c(cc1S(N)(=O)=O)S(=O)(=O)CCC2 [meticrane]	clear effect; also recorded: increased anti-tumour response	clinical signs [2]: slightly ruffled; LD50 [3]: 10000 mg/kg
CC1=C(/C=C/C(C)=C/C=C/C(C)=C/C(=O)O)C(C)(C)CCC1 [ATRA, All-trans Retinoic Acid]	clear effect; also recorded: increased anti-tumour response	survival / clinical efficacy of CTLA4 blockade on co-treatment ([4]; mouse, in vivo): improve the clinical efficacy; also recorded: improved survival
O=[N+]([O-])O[C@H]1CO[C@H]2[C@@H]1OC[C@H]2O[N+](=O)[O-] [ISDN, Isosorbide dinitrate]	increase the therapeutic efficacy; also recorded: increased the response rate	survival / clinical efficacy of CTLA4 blockade on co-treatment ([4]; Renca kidney cancer, drug in combination with anti-CTLA4): improve the clinical efficacy; also recorded: improved survival; complete regression / clinical efficacy of CTLA4 blockade on co-treatment (Line-1 lung cancer cells; drug in combination with anti-CTLA4): improve the clinical efficacy; also recorded: complete regression in a substantial proportion of mice; complete regression (Line-1 lung cancer cells; either treatment alone): not observed; survival / efficacy of checkpoint blockade with anti-GITR on co-treatment (AB1-HA mesothelioma [5]): could equally be improved; also recorded: improved survival
CCOC(=O)N1CCN(/[N+]([O-])=N/Oc2ccc([N+](=O)[O-])cc2[N+](=O)[O-])CC1 [JS-K]	improves the clinical benefit	
CN1CC[C@H](c2c(O)cc(O)c3c(=O)cc(-c4ccccc4Cl)oc23)[C@H](O)C1 [flavopiridol]	increased the response rate	
O=S(=O)(c1cccc2cnccc12)N1CCCNCC1 [Fasudil]	increased the response rate	growth delay (AB1-HA mesothelioma [1]; drug alone): did not result in any growth delay
